Test systems include IGROV-1; HCC 2998; OVCAR-8; M14; OVCAR-5; SK-MEL-28; OVCAR-4; SK-MEL-5; NCI-H226; SF-295; TK-10; UO-31; SK-MEL-2; CAKI-1; OVCAR-3; SNB-19; SN12C; HCT-15; HOP-92; RXF 393.
Common to all, as to assay: NCI tumour cell line growth inhibition, 48 h

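Each compound was tested at five concentrations against cells in 96-well plates for 48 hours. The concentration for 50% growth inhibition is given as GI50.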 Activity calls are given as the source filed them. No stated cut-off is given here; in the data, active = GI50 up to about 1.1 µM and inactive = higher. A value given as a limit tells only on which side of the number the result lay.

Regarding `Cn1ccc(C(=O)NCCN(CCNC(=O)c2ccn(C)c(=O)c2O)CCNC(=O)c2ccn(C)c(=O)c2O)c(O)c1=O`, the GI50 in the assay with IGROV-1 was > 100 µM (inactive); in the assay on HCC 2998, > 100 µM (inactive); in the assay on OVCAR-8, > 100 µM (inactive); in the assay with M14, > 100 µM (inactive); with OVCAR-5 it was 29.9 µM (inactive); in the assay with SK-MEL-28 it was > 100 µM (inactive). The GI50 with OVCAR-4, in the assay on SK-MEL-5, with NCI-H226, with SF-295, in the assay on TK-10 and in the assay with UO-31 was > 100 µM (inactive) throughout. Besides, the GI50 with SK-MEL-2 is > 100 µM (inactive); with CAKI-1, > 100 µM (inactive); with OVCAR-3 it was > 100 µM (inactive); in the assay on SNB-19 it was > 100 µM (inactive); with SN12C, > 100 µM (inactive); in the assay on HCT-15, greater than 100 µM. Moreover, the GI50 with HOP-92 and in the assay on RXF 393 was > 100 µM (inactive) each time.
